The source of these data is patent US20250388602A1 (Genase Therapeutics B.V., priority 2022, published 2025).

In one data set the target is recombinant human DHODH (Homo sapiens (Human), UniProt Q02127). Nature of the data set: DHODH enzyme assay (Assay A), DCIP absorbance. In kind it is biochemical. The following applies: bins ≥10 nM-<100 nM and <10 nM; read-out: IC50 DHODH inhibition activity.
The subject of a further data set is ZIKV. Nature of the data set: anti-ZIKV CPE reduction assay in A549 cells (MTS). In kind it is cell-based, ZIKV MR766 prototype strain. On the procedure: (§1) The lung cancer epithelial cell line A549 was obtained from the American Type Culture Collection (ATCC; Rockville, MD, USA) and cultured in MEM medium (Gibco BRL, Gaithersburg, MD, USA) with 10% fetal calf serum (FCS; Gibco BRL), 2 mM L-glutamine (Gibco BRL) and 0.075% sodium bicarbonate (Gibco BRL).
(§2) The ZIKV MR766 prototype strain and the DENV-2 laboratory-adapted New Guinea C strain were obtained from ATCC and stocks were grown in the C6/36 mosquito cell line (ATCC). Viral stock titers were determined using plaque assay in BHK-21 cells (ATCC).
(§3) The anti-ZIKV and anti-DENV-2 activity in A549 cells was determined using a tetrazolium-based colorimetric cytopathic effect (CPE) reduction assay. This assay has been described in detail before (Virology. 2021; doi.org/10.1016/j.virol.2021.07.003). […] Three hours after MTS incubation, virus was inactivated using 0.5% Triton X-100 (Thermo Fisher Scientific, Waltham, MA, USA) and the absorbance was then recorded at 490 nm with a 96-well plate reader and compared with four cell control replicates (cells without virus and drugs) and four virus control wells (cells with virus but without drug). […] Absorbance was recorded using the VersaMax ELISA™ microplate reader (Molecular Devices) and analyzed with the Softmax Pro® software (Molecular Devices, Version 4.0). […]

A further data set concerns DENV-2. Nature of the data set: anti-DENV-2 CPE reduction assay in A549 cells (MTS). It counts as cell-based, DENV-2 laboratory-adapted New Guinea C strain. On the procedure:
as §1, §2, §3

One may read the IC50 as the midpoint of a concentration-inhibition curve. The half-life is the time needed for the level to fall by half in the phase considered.

Sequence of recombinant human DHODH (Q02127 whole entry): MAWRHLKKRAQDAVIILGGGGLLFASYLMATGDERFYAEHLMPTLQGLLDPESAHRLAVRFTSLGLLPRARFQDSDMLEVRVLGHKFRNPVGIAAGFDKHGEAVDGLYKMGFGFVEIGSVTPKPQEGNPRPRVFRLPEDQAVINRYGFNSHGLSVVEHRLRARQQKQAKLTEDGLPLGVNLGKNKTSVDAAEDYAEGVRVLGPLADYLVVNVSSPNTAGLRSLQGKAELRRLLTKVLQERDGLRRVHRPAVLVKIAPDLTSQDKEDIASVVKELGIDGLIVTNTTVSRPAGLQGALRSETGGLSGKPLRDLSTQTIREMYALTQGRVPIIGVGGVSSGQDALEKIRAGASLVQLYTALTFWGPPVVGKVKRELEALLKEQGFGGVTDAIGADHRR

Consider `COc1ccc(F)c(-n2ncc3c2COC[C@H]3NC(=O)c2ncn3c2CCCC3)c1Cl` (single isomer, unassigned) [Ex-9], for which the IC50 on recombinant human DHODH is less than 10 nM; in the data set on ZIKV (Zika virus, 72 h, MOI 1, 3 d of infection) it was 9.3 ± 2 nM; with DENV-2 (Dengue virus, DENV2, A549, 96 h, read-out: IC50 DENV-2 MTS), 1.6 ± 1 nM. The “antiviral activity against ZIKV” value with ZIKV is given as “demonstrating antiviral activity”. For the same molecule, the “antiviral activity against DENV-2” value in the data set on DENV-2 (A549 cells) was “demonstrating antiviral activity”. In “in vitro” (% remaining at 120 min, 1 μM), the hHEPs % remaining is 87%. Also, the half-life at 1 μM in the data set “in vitro” (human, hepatocytes) is greater than 10 h.
